Test systems include U251 CNS; SW-620 colon; EKVX NSCLC; UO-31 renal; MCF7 breast; RXF 393 renal; MALME-3M melanoma; OVCAR-5 ovarian; MDA-MB-231 breast; T-47D breast.
Common to all, as to test: DTP human tumour cell line panel, 48 h

Drawing on PubChem BioAssay (NCI), this text covers GI50 and TGI for 8 compounds.

Several values for one entry are separate records, joined by “and”; a condition that tells them apart may be missing. Equal values may be shown once.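 These data come from cells grown in 96-well plates and exposed to compound for 48 hours at five concentrations. At the GI50, growth is halved. TGI is the concentration that stops growth completely.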

As for `CC1=C(SCCC(=O)OC(C[Se]C2=C(C)C(=O)c3ccccc3C2=O)C(=O)NCCCCCC(=O)OCc2ccccc2)C(=O)c2ccccc2C1=O` (stereo not drawn), the GI50 with U251 CNS is 4.09 µM; in the experiment on SW-620 colon, 2.43 µM; with EKVX NSCLC, 3.62 µM; in the experiment on UO-31 renal it was 2.51 µM; in the experiment on MCF7 breast, 4.75 µM; with RXF 393 renal it was 14.9 µM. Further, the GI50 in the experiment with MALME-3M melanoma is 2.07 µM; in the experiment with OVCAR-5 ovarian it was 5.05 µM; in the experiment with MDA-MB-231 breast, 6.81 µM; with T-47D breast it was 17.7 µM. Moreover, the TGI was 13.6 µM in the experiment with U251 CNS; 9.34 µM with SW-620 colon; 17.8 µM in the experiment on EKVX NSCLC; 15.3 µM in the experiment with UO-31 renal; 29.6 µM with MCF7 breast; 28.3 µM with RXF 393 renal. For the same compound, the TGI with MALME-3M melanoma amounted to 6.96 µM; in the experiment with OVCAR-5 ovarian, 18.7 µM; in the experiment on MDA-MB-231 breast, 22 µM; in the experiment on T-47D breast, 51.8 µM.

`COc1ccc(C/C(=C(\C)c2ccc(OCCN3CCCC3)cc2)c2ccc(OCCN3CCCC3)cc2)cc1`: the GI50 in the experiment on U251 CNS is 1.8 µM; with SW-620 colon, 1.75 µM; with EKVX NSCLC, 2.21 µM; in the experiment with UO-31 renal, 1.56 µM; in the experiment with MCF7 breast, 1.6 µM; with RXF 393 renal, 1.48 µM. Also, the GI50 with MALME-3M melanoma is 1.67 µM; in the experiment on OVCAR-5 ovarian it was 1.8 µM; in the experiment with MDA-MB-231 breast, 1.73 µM; in the experiment with T-47D breast, 1.69 µM. Moreover, the TGI amounted to 3.32 µM in the experiment on U251 CNS; 3.65 µM in the experiment with SW-620 colon; 5.89 µM in the experiment with EKVX NSCLC; 2.94 µM in the experiment with UO-31 renal; 3.1 µM in the experiment with MCF7 breast; 2.88 µM in the experiment on RXF 393 renal. Also, the TGI with MALME-3M melanoma worked out at 3.26 µM; in the experiment on OVCAR-5 ovarian, 3.72 µM; in the experiment on MDA-MB-231 breast, 3.37 µM; in the experiment with T-47D breast it was 3.37 µM.

Turning to `CC(C)(C)C1CCC2c3c([nH]c4ccccc34)C3C(=O)N(c4ccc(Cl)cc4)C(=O)C3C2C1` (stereo not drawn), the GI50 was 56.5 µM and > 10 µM with U251 CNS; 53.9 µM and > 10 µM with SW-620 colon; 63.9 µM and > 10 µM with EKVX NSCLC; more than 100 µM in the experiment with UO-31 renal; 48.5 µM and > 10 µM in the experiment on RXF 393 renal; 56.1 µM and > 10 µM with MDA-MB-231 breast. Moreover, in the experiment with T-47D breast, the GI50 is 60.9 µM and > 10 µM. In addition, the TGI in the experiment on U251 CNS was more than 100 µM; in the experiment on SW-620 colon it was more than 100 µM; with EKVX NSCLC, more than 100 µM; in the experiment with UO-31 renal, more than 100 µM; in the experiment on MCF7 breast it was 99.6 µM; in the experiment with RXF 393 renal, more than 100 µM. For the same compound, the TGI in the experiment with MALME-3M melanoma was more than 10 µM; with OVCAR-5 ovarian it was 0.256 µM; in the experiment with MDA-MB-231 breast, more than 100 µM; with T-47D breast, more than 100 µM.

On to `Nc1ccc(C2=CC(c3ccc(Cl)cc3)N3C=CSC3=N2)cc1` (stereo not drawn), for which the GI50 in the experiment with U251 CNS was 2.94 µM; in the experiment on SW-620 colon, 2.07 µM; in the experiment on UO-31 renal, 2.33 µM; with MCF7 breast, 1.22 µM; in the experiment with RXF 393 renal it was 2.03 µM; in the experiment with MALME-3M melanoma it was 18.1 µM. The GI50 in the experiment on OVCAR-5 ovarian is 12.2 µM; with MDA-MB-231 breast, 4.76 µM; in the experiment on T-47D breast, 4.76 µM. Besides, the TGI in the experiment with U251 CNS stood at 12.1 µM; in the experiment on SW-620 colon it was 4.51 µM; with UO-31 renal, 11 µM; in the experiment on MCF7 breast, 4.52 µM; in the experiment with RXF 393 renal it was 4.18 µM; with MALME-3M melanoma, 47.8 µM. The total growth inhibition concentration (TGI) was found to be 34.7 µM in the experiment on OVCAR-5 ovarian, 46.9 µM in the experiment on MDA-MB-231 breast and 27.7 µM in the experiment on T-47D breast.

On to `COc1cc(/C=N/Nc2ncnc3c2cnn3-c2ccccc2)ccc1O`, for which the GI50 is 11.6 µM in the experiment with U251 CNS; 11.1 µM in the experiment with SW-620 colon; more than 25 µM with EKVX NSCLC; 6.54 µM in the experiment on MCF7 breast; 4.33 µM in the experiment on RXF 393 renal; more than 25 µM in the experiment on MALME-3M melanoma. The GI50 in the experiment on OVCAR-5 ovarian is more than 25 µM; in the experiment on MDA-MB-231 breast, 2.34 µM; in the experiment with T-47D breast, 7.64 µM. Also, the TGI in the experiment with U251 CNS, in the experiment on SW-620 colon, in the experiment on EKVX NSCLC, in the experiment on UO-31 renal, in the experiment on MCF7 breast and with RXF 393 renal was more than 25 µM each time. In addition, the TGI with MALME-3M melanoma, in the experiment with OVCAR-5 ovarian, with MDA-MB-231 breast and with T-47D breast was more than 25 µM each time.

For the compound `O=C(CCCN1CCC(O)(c2ccc(Cl)cc2)CC1)c1ccc(F)cc1`, the concentration for total growth inhibition (TGI) is 41.1 µM in the experiment on U251 CNS; 39.6 µM in the experiment with SW-620 colon; more than 100 µM with EKVX NSCLC; 45.8 µM in the experiment with UO-31 renal; more than 100 µM in the experiment with MCF7 breast; 36.2 µM in the experiment on MALME-3M melanoma. Besides, the TGI is more than 100 µM in the experiment on OVCAR-5 ovarian, 51.5 µM in the experiment with MDA-MB-231 breast and more than 100 µM in the experiment on T-47D breast.

As to `CCC(C)Nc1ccc(N)cc1` (stereo not drawn), the GI50 in the experiment on U251 CNS was 3.64 µM; in the experiment with SW-620 colon it was 4.16 µM; with EKVX NSCLC, 3.47 µM; in the experiment with UO-31 renal, 3.3 µM; in the experiment with MCF7 breast, 3.41 µM; with RXF 393 renal, 4.62 µM. Further, the GI50 with MALME-3M melanoma was 2.65 µM; in the experiment on OVCAR-5 ovarian, 13.8 µM; in the experiment on MDA-MB-231 breast, 2.91 µM; with T-47D breast it was 3.63 µM. Besides, the TGI in the experiment with U251 CNS was found to be 13 µM; in the experiment on SW-620 colon, 15.5 µM; in the experiment on EKVX NSCLC, 14.8 µM; in the experiment with UO-31 renal, 14 µM; with MCF7 breast it was 12.4 µM; in the experiment with RXF 393 renal, 15.8 µM. Moreover, the TGI is 8.08 µM in the experiment with MALME-3M melanoma, 39.8 µM with OVCAR-5 ovarian, 12.8 µM in the experiment on MDA-MB-231 breast and 14.1 µM in the experiment with T-47D breast.

For the compound `CCOC(=O)Oc1cc2c(c(OC)c1OC)-c1ccc(OC)c(=O)cc1C(NC(C)=O)CC2` (stereo not drawn), the TGI in the experiment on U251 CNS was 8.56 µM; with SW-620 colon, more than 100 µM; in the experiment with EKVX NSCLC, more than 100 µM; in the experiment on UO-31 renal, more than 100 µM; with MCF7 breast, more than 100 µM; in the experiment with RXF 393 renal, 0.564 µM. Besides, the TGI was more than 100 µM in the experiment on MALME-3M melanoma, more than 100 µM with OVCAR-5 ovarian, more than 90.2 µM in the experiment on MDA-MB-231 breast and more than 100 µM in the experiment on T-47D breast.
